Common to all, as to format: biochemical
For one assay, the target named is T1, KRAS G12D (Homo sapiens, UniProt P01116, G12D).
T1 construct: made in house; host or cells: E. coli, e.g. BL21 (DE3)
The assay can be described thus: HTRF KRAS-SOS1 interaction assay, KRAS G12D. Conditions: binned ≤2 μM / >2 μM, read-out: Inhibition of KRAS G12D (IC50). An outline of the steps: (§1)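 GST-KRAS + anti-GST-Eu; His-hSOS1 + anti-6His-XL665; cpd in DMSO, duplicate, 10–0.01 μM; ~10 min incubation; HTRF ex 337/em 620, 665 nm; IC50 fitted on 665/620 ratio.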

Another assay deals with T2, KRAS WT (Homo sapiens, UniProt P01116).
T2 construct: made in house; host or cells: E. coli, e.g. BL21 (DE3)
T2 sequence (P01116 1-188 isoform P01116-2): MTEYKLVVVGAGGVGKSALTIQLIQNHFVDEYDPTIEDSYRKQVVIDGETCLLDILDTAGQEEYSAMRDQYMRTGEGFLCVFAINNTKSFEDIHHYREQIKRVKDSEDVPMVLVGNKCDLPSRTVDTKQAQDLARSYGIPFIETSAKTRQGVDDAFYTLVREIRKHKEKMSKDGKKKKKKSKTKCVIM
The assay can be described thus: HTRF KRAS-SOS1 interaction assay, wildtype KRAS. To be noted: binned ≤2 μM / >2 μM, read-out: Inhibition of KRAS WT (IC50). An outline of the steps: as §1

For the next assay, the target named is T3, KRAS G12V (Homo sapiens, UniProt P01116, G12V).
T3 construct: made in house; host or cells: E. coli, e.g. BL21 (DE3)
T3 sequence (P01116 1-188 isoform P01116-2 G12V): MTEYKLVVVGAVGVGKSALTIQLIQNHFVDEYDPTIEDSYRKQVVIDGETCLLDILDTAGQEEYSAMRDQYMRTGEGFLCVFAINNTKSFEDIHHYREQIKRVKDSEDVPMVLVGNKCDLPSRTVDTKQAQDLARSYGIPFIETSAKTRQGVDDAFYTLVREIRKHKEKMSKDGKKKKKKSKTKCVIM
The assay can be described thus: HTRF KRAS-SOS1 interaction assay, KRAS G12V. To be noted: binned ≤2 μM / >2 μM, read-out: Inhibition of KRAS G12V (IC50). An outline of the steps: as §1
(In TR-FRET formats the signal depends on donor and acceptor labels being close together.)

The next assay deals with T4, KRAS G12S (Homo sapiens, UniProt P01116, G12S).
T4 construct: made in house; host or cells: E. coli, e.g. BL21 (DE3)
T4 sequence (P01116 1-188 isoform P01116-2 G12S): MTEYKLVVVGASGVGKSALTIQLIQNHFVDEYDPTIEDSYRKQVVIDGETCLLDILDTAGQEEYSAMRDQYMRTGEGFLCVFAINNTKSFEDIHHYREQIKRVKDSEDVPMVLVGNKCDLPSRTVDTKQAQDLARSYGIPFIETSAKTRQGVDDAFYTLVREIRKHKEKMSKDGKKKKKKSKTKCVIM
The assay can be described thus: HTRF KRAS-SOS1 interaction assay, KRAS G12S. To be noted: binned ≤2 μM / >2 μM, read-out: Inhibition of KRAS G12S (IC50). The procedure, abridged:
as §1

T1 sequence (P01116 1-188 isoform P01116-2 G12D): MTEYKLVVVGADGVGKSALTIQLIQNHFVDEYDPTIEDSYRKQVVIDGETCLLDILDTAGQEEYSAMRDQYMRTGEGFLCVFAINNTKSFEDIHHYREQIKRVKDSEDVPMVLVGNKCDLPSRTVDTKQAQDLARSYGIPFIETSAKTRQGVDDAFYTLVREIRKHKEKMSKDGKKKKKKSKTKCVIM

What is called IC50 is the point on the concentration scale where inhibition reaches its midpoint. Regarding `C[C@H](c1cncnc1N)N1CCOc2c(C(F)(F)F)c(-c3cccc4sc(N)c(C#N)c34)c(F)c3nc(OC[C@@]45CCCN4C[C@H](F)C5)nc1c23` (single isomer, unassigned) [Compound 723], the IC50 on KRAS G12D, at KRAS WT, at KRAS G12V and at KRAS G12S was not above 2000 nM each time.

As to `C[C@H](c1cccnc1N)N1CCOc2c(C(F)(F)F)c(-c3ccc(F)c4sc(N)c(C#N)c34)c(F)c3nc(OC[C@@]45CCCN4C[C@@]4(CC4(F)F)C5)nc1c23` (single isomer, unassigned) [Compound 725], the IC50 on KRAS G12D, at KRAS WT, at KRAS G12V and at KRAS G12S was not above 2000 nM throughout.

`C[C@H](c1cccnc1N)N1CCOc2c(C3CC3)c(-c3ccc(F)c4sc(N)c(C#N)c34)c(F)c3nc(OC[C@@]45CCCN4C[C@H](F)C5)nc1c23` (single isomer, unassigned) [Compound 727]: the IC50 at KRAS G12D, on KRAS WT, at KRAS G12V and on KRAS G12S was not above 2000 nM in each case.

Regarding `C#Cc1c(F)ccc2cc(O)cc(-c3nc4c5c(nc(OC[C@@H]6CCCN6C)nc5c3F)N(C(C)c3cccnc3N)CCO4)c12` (single isomer, unassigned) [Compound 728], the IC50 on KRAS G12D, on KRAS WT, at KRAS G12V and at KRAS G12S was not above 2000 nM throughout.

Turning to `C=C[C@H]1COc2c(Cl)c(-c3ccc(F)c4sc(N)c(C#N)c34)c(F)c3nc(OC[C@@]45CCCN4C[C@H](F)C5)nc(c23)N1C(C)c1cccnc1N` (single isomer, unassigned) [Compound 732], the IC50 on KRAS G12D, on KRAS WT, at KRAS G12V and at KRAS G12S was not above 2000 nM throughout.

In the case of `N#Cc1c(N)sc2c(F)ccc(-c3c(C(F)(F)F)c4c5c(nc(OC[C@@]67CCCN6C[C@H](F)C7)nc5c3F)N([C@H](C/C=C/C(F)(F)F)c3cccnc3N)CCO4)c12` (single isomer, unassigned) [Compound 739], the IC50 on KRAS G12D, at KRAS WT, at KRAS G12V and at KRAS G12S was not above 2000 nM each time.

For `C[C@H](c1cccnc1N)N1CCOc2c(Cl)c(-c3ccc(F)c4sc(N)c(C#N)c34)c(F)c3nc(OC[C@@H]4CC(F)(F)CN4C)nc1c23` (single isomer, unassigned) [Compound 741], the IC50 at KRAS G12D, on KRAS WT, at KRAS G12V and at KRAS G12S was not above 2000 nM throughout.

On to `C=CC[C@H](c1cccnc1N)N1C[C@H](C)Oc2nc(-c3cc(N)c(F)c(C)c3C(F)(F)F)c(F)c3nc(OC[C@@]45CCCN4C[C@H](F)C5)nc1c23` (single isomer, unassigned) [Compound 746], for which the IC50 on KRAS G12D, at KRAS WT, at KRAS G12V and on KRAS G12S was not above 2000 nM throughout.

In the case of `Cc1c(F)c(N)cc(-c2nc3c4c(nc(O[C@@H](C)C5CCCN5C)nc4c2F)N([C@H](C)c2cccnc2N)CCO3)c1C(F)(F)F` (single isomer, unassigned) [Compound 748], the IC50 on KRAS G12D, on KRAS WT, on KRAS G12V and on KRAS G12S was not above 2000 nM throughout.

With `CC(=O)c1c(F)ccc2cc(O)cc(-c3nc4c5c(nc(OC[C@@H]6CCCN6C)nc5c3F)N(C(C)c3cccnc3N)CCO4)c12` (single isomer, unassigned) [Compound 750], the 50% inhibitory concentration (IC50) at KRAS G12D, at KRAS WT, at KRAS G12V and on KRAS G12S was not above 2000 nM in each case.

Consider `N#Cc1c(N)sc2c(F)ccc(-c3c(C(F)(F)F)c4c5c(nc(OC[C@@]67CCCN6C[C@H](F)C7)nc5c3F)N([C@H](CC3CC3)c3cccnc3N)CCO4)c12` (single isomer, unassigned) [Compound 753], for which the IC50 at KRAS G12D, at KRAS WT, at KRAS G12V and at KRAS G12S was not above 2000 nM each time.

For `N#Cc1c(N)sc2c(F)ccc(-c3c(Cl)c4c5c(nc(OC[C@@]67CCCN6C[C@H](F)C7)nc5c3F)N(C(/C=C\F)c3cccnc3N)CCO4)c12` (single isomer, unassigned) [Compound 755], the IC50 on KRAS G12D, on KRAS WT, on KRAS G12V and at KRAS G12S was not above 2000 nM each time.

In the case of `C[C@H](c1nccnc1N)N1CCOc2c(C(F)(F)F)c(-c3ccc(F)c4sc(N)c(C#N)c34)c(F)c3nc(OC[C@@]45CCCN4C[C@H](F)C5)nc1c23` (single isomer, unassigned) [Compound 760], the IC50 on KRAS G12D, at KRAS WT, at KRAS G12V and on KRAS G12S was not above 2000 nM throughout.

With `C[C@H](c1cccnc1N)N1CCOc2c(C(F)(F)F)c(-c3ccc(F)c4sc(N)c(C#N)c34)c(F)c3nc(OCC4(CN5[C@H](C)COC[C@@H]5C)CC4)nc1c23` (single isomer, unassigned) [Compound 763], the IC50 at KRAS G12D, on KRAS WT, at KRAS G12V and at KRAS G12S was not above 2000 nM throughout.

Take `C#CCC(c1cccnc1N)N1CCOc2c(Cl)c(-c3ccc(F)c4sc(N)c(C#N)c34)c(F)c3nc(OC[C@@]45CCCN4C[C@H](F)C5)nc1c23` (single isomer, unassigned) [Compound 764]: the IC50 on KRAS G12D, at KRAS WT, at KRAS G12V and at KRAS G12S was not above 2000 nM in each case.

For the compound `Cc1c(F)c(N)cc(-c2nc3c4c(nc(OC[C@@]56CCCN5C[C@H](F)C6)nc4c2F)N([C@H](C)c2cccnc2N)CCO3)c1C(F)(F)F` (single isomer, unassigned) [Compound 765], the IC50 on KRAS G12D, on KRAS WT, on KRAS G12V and at KRAS G12S was not above 2000 nM in each case.

As for `C[C@H](c1cc(Cl)cnc1N)N1CCOc2c(C(F)(F)F)c(-c3ccc(F)c4sc(N)c(C#N)c34)c(F)c3nc(OC[C@@]45CCCN4C[C@H](F)C5)nc1c23` (single isomer, unassigned) [Compound 766], the IC50 at KRAS G12D, at KRAS WT, at KRAS G12V and at KRAS G12S was not above 2000 nM in each case.

With `CO[C@H]1CCN(C)[C@@H]1COc1nc2c3c(c(C(F)(F)F)c(-c4ccc(F)c5sc(N)c(C#N)c45)c(F)c3n1)OCCN2[C@H](C)c1cc(F)cnc1N` (single isomer, unassigned) [Compound 774], the half-inhibitory concentration (IC50) on KRAS G12D, at KRAS WT, at KRAS G12V and on KRAS G12S was not above 2000 nM throughout.

On to `C=C1CN2CC(=C)CC2(COc2nc3c4c(c(C(F)(F)F)c(-c5ccc(F)c6sc(N)c(C#N)c56)c(F)c4n2)OCCN3[C@H](C)c2cccnc2N)C1` (single isomer, unassigned) [Compound 775], for which the IC50 at KRAS G12D, on KRAS WT, at KRAS G12V and on KRAS G12S was not above 2000 nM throughout.

For the compound `C[C@H](c1cncnc1N)N1CCOc2c(C(F)(F)F)c(-c3ccc(F)c4sc(N)c(C#N)c34)c(F)c3nc(OC[C@@]45CCCN4C[C@H](F)C5)nc1c23` (single isomer, unassigned) [Compound 777], the half-maximal inhibitory concentration (IC50) on KRAS G12D, at KRAS WT, at KRAS G12V and at KRAS G12S was not above 2000 nM in each case.

As for `C#Cc1c(F)ccc2cc(O)cc(-c3nc4c5c(nc(O[C@@H](C)[C@@H]6CCCN6C)nc5c3F)N([C@H](C)c3cccnc3N)CCO4)c12` (single isomer, unassigned) [Compound 779], the half-maximal inhibitory concentration (IC50) on KRAS G12D, at KRAS WT, on KRAS G12V and on KRAS G12S was not above 2000 nM throughout.

Turning to `Cc1cnc(N)c([C@@H](C)N2CCOc3c(C(F)(F)F)c(-c4ccc(F)c5sc(N)c(C#N)c45)c(F)c4nc(OC[C@@]56CCCN5C[C@H](F)C6)nc2c34)c1` (single isomer, unassigned) [Compound 796], the IC50 at KRAS G12D, at KRAS WT, at KRAS G12V and on KRAS G12S was not above 2000 nM in each case.

`C[C@H](c1nccnc1N)N1CCOc2c(C(F)(F)F)c(-c3ccc(F)c4sc(N)c(C#N)c34)c(F)c3nc(OC[C@@]45CCCN4C[C@H](F)C5)nc1c23` (single isomer, unassigned) [Compound 797]: the IC50 on KRAS G12D, at KRAS WT, at KRAS G12V and at KRAS G12S was more than 2000 nM each time.

Consider `N#Cc1c(N)sc2cccc(-c3c(Cl)c4c5c(nc(OC[C@@]67CCCN6C[C@H](F)C7)nc5c3F)N([C@@H](c3cccnc3N)C(F)F)CCO4)c12` (single isomer, unassigned) [Compound 802], for which the IC50 on KRAS G12D, on KRAS WT, at KRAS G12V and on KRAS G12S was more than 2000 nM each time.

Consider `CCN(CC)CCC[C@H](c1cccnc1N)N1CCOc2c(C(F)(F)F)c(-c3ccc(F)c4sc(N)c(C#N)c34)c(F)c3nc(OC[C@@]45CCCN4C[C@H](F)C5)nc1c23` (single isomer, unassigned) [Compound 806], for which the IC50 at KRAS G12D, at KRAS WT, at KRAS G12V and at KRAS G12S was not above 2000 nM in each case.

(Values after patent US12668600B2 (Kumquat Biosciences Inc., priority 2023, dated 2026).)
